# Test results: ChEMBL document CHEMBL1201862, “PubChem BioAssay data set” (2004)
#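 Each compound was tested at five concentrations against cells in 96-well plates for 48 hours. GI50 marks 50% less growth.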 Activity calls are given as the source filed them. Rule as the data show it: active = GI50 up to about 1.1 µM and inactive = higher.
# Assays:
# Test in all cases: NCI anticancer screen, dose series, 48 h
# ACHN = test system: ACHN
# CAKI-1 = test system: CAKI-1
# CCRF-CEM = test system: CCRF-CEM
# COLO 205 = test system: COLO 205
# HT-29 = test system: HT-29
# K562 = test system: K562
# MCF7 = test system: MCF7
# MDA-MB-231 = test system: MDA-MB-231
# MDA-N = test system: MDA-N
# OVCAR-4 = test system: OVCAR-4
# OVCAR-5 = test system: OVCAR-5
# PC-3 = test system: PC-3
# RPMI-8226 = test system: RPMI-8226
# SF-268 = test system: SF-268
# SF-295 = test system: SF-295
# SNB-19 = test system: SNB-19
# SR = test system: SR
# U-251 = test system: U-251
# UO-31 = test system: UO-31
# MOLT-4 = test system: MOLT-4
SMILES,GI50 (ACHN),GI50 (CAKI-1),GI50 (CCRF-CEM),GI50 (COLO 205),GI50 (HT-29),GI50 (K562),GI50 (MCF7),GI50 (MDA-MB-231),GI50 (MDA-N),GI50 (OVCAR-4),GI50 (OVCAR-5),GI50 (PC-3),GI50 (RPMI-8226),GI50 (SF-268),GI50 (SF-295),GI50 (SNB-19),GI50 (SR),GI50 (U-251),GI50 (UO-31),GI50 (MOLT-4)
Nc1ccccc1.O=P(O)(OP(=O)(O)c1ccccc1)c1ccccc1,> 100 µM (inactive),> 100 µM (inactive),> 100 µM (inactive),> 100 µM (inactive),> 100 µM (inactive),> 100 µM (inactive),> 100 µM (inactive),> 100 µM (inactive),> 100 µM (inactive),> 100 µM (inactive),> 100 µM (inactive),> 100 µM (inactive),> 100 µM (inactive),> 100 µM (inactive),96.4 µM (inactive),> 100 µM (inactive),> 100 µM (inactive),> 100 µM (inactive),> 100 µM (inactive),–
Cc1cc(OCc2nnc3n2N=C(c2cc(F)c(Cl)cc2Cl)/C(=C/c2ccc(Cl)cc2)S3)ccc1Cl,33.5 µM (inactive),18.6 µM (inactive),2.95 µM (inactive),–,16.7 µM (inactive),8.38 µM (inactive),23.3 µM (inactive),29.7 µM (inactive),32.4 µM (inactive),19.5 µM (inactive),24.1 µM (inactive),21.4 µM (inactive),11.7 µM (inactive),22.8 µM (inactive),29.9 µM (inactive),–,7.96 µM (inactive),18.3 µM (inactive),27.5 µM (inactive),0.337 µM (active)
COC(=O)C1=C(C(=O)NNc2ccccc2)N(c2cccnc2Cl)C(c2ccccc2)=CC1c1ccccc1 (stereo not drawn),76.7 µM (inactive),56.5 µM (inactive),27.7 µM (inactive),66.7 µM (inactive),58.6 µM (inactive),20 µM (inactive),34.9 µM (inactive),56.1 µM (inactive),20.5 µM (inactive),> 100 µM (inactive),> 100 µM (inactive),31.3 µM (inactive),14.1 µM (inactive),88.1 µM (inactive),19.6 µM (inactive),> 100 µM (inactive),24 µM (inactive),47.1 µM (inactive),–,15.2 µM (inactive)
O=P(O)(O)C(NCC(O)CN1CCOCC1)P(=O)(O)O (stereo not drawn),> 100 µM (inactive),> 100 µM (inactive),> 100 µM (inactive),> 100 µM (inactive),> 100 µM (inactive),> 100 µM (inactive),> 100 µM (inactive),> 100 µM (inactive),> 100 µM (inactive),–,> 100 µM (inactive),> 100 µM (inactive),> 100 µM (inactive),> 100 µM (inactive),> 100 µM (inactive),> 100 µM (inactive),> 100 µM (inactive),> 100 µM (inactive),> 100 µM (inactive),> 100 µM (inactive)
CCOC(=O)C1Cc2ccc(C)cc2C1=O (stereo not drawn),> 100 µM (inactive),> 100 µM (inactive),34 µM (inactive),> 100 µM (inactive),> 100 µM (inactive),31.4 µM (inactive),> 100 µM (inactive),> 100 µM (inactive),> 100 µM (inactive),81.7 µM (inactive),> 100 µM (inactive),> 100 µM (inactive),41.1 µM (inactive),79.3 µM (inactive),> 100 µM (inactive),–,31.7 µM (inactive),58.1 µM (inactive),48.6 µM (inactive),39.4 µM (inactive)
Cc1[nH]n(-c2ccc(S(=O)(=O)O)cc2)c(=O)c1/N=N/c1ccccc1,55.2 µM (inactive),> 100 µM (inactive),–,> 100 µM (inactive),> 100 µM (inactive),> 100 µM (inactive),> 100 µM (inactive),> 100 µM (inactive),> 100 µM (inactive),> 100 µM (inactive),> 100 µM (inactive),> 100 µM (inactive),> 100 µM (inactive),50.7 µM (inactive),> 100 µM (inactive),> 100 µM (inactive),> 100 µM (inactive),> 100 µM (inactive),> 100 µM (inactive),> 100 µM (inactive)
